From ChEMBL document CHEMBL4699511, “Cedrol, a Sesquiterpene Alcohol, Enhances the Anticancer Efficacy of Temozolomide in Attenuating Drug Resistance via Regulation of the DNA Damage Response and MGMT Expression” (J Nat Prod, 2020) come the findings set out here.

Series [1] is described as follows: Toxicity in BALB/c mouse xenografted with DBTRG-05MG cells assessed as reduction in body weight at 75 mg/kg, sc for every 2 days for 20 days. It counts as organism-based. As to conditions: in vivo, 480 h, time 20 day.
Series [2] deals with DBTRG-05MG. Nature of the series: Synergistic cytotoxicity against human DBTRG-05MG cells assessed as synergistic effect index at 89.9 uM after 48 hrs in presence of 309 uM TMZ by MTT assay. It counts as functional.
For series [3], the system named is RG2. Kind of series: Synergistic cytotoxicity against rat RG2 cells assessed as synergistic effect index at 112.4 uM after 48 hrs in presence of 515.1 uM TMZ by MTT assay. It counts as functional.
The subject of series [4] is RG2. Nature of the series: Synergistic cytotoxicity against rat RG2 cells assessed as synergistic effect index at 134.9 uM after 48 hrs in presence of 309 uM TMZ by MTT assay. Type of series: functional.
Series [5] is described as follows: Synergistic cytotoxicity against rat CTX TNA2 cells assessed as synergistic effect index at 112.4 uM after 48 hrs in presence of 206 uM TMZ by MTT assay. It counts as cell-based. As to conditions: ctx tna2, 48 h.
Series [6] has as its system DBTRG-05MG. Kind of series: Induction of cell cycle arrest in human DBTRG-05MG cells assessed as accumulation at S phase at 112.4 uM after 6 hrs by propidium iodide staining based flow cytometric analysis (reference value: 22.76 +/- 1.56%). Type of series: functional.
Series [7] has as its system DBTRG-05MG. Nature of the series: Induction of cell cycle arrest in human DBTRG-05MG cells assessed as accumulation at G0/G1 phase at 112.4 uM after 48 hrs by propidium iodide staining based flow cytometric analysis (reference value: 47.16 +/- 1.55%). Type of series: functional.
The subject of series [8] is DBTRG-05MG. Kind of series: Induction of cell cycle arrest in human DBTRG-05MG cells assessed as accumulation at G2/M phase at 112.4 uM after 48 hrs by propidium iodide staining based flow cytometric analysis (reference value: 30.08 +/- 0.1%). It counts as functional.
In series [9] the test system is RG2. Kind of series: Induction of cell cycle arrest in rat RG2 cells assessed as accumulation at S phase at 112.4 uM after 12 hrs in presence of TMZ by propidium iodide staining based flow cytometric analysis (reference value: 20.15 +/- 2.44%). It counts as functional.
The subject of series [10] is RG2. Nature of the series: Induction of cell cycle arrest in rat RG2 cells assessed as accumulation at S phase at 112.4 uM after 24 hrs in presence of TMZ by propidium iodide staining based flow cytometric analysis (reference value: 20.15 +/- 2.44%). Type of series: functional.
Series [11] deals with RG2. Nature of the series: Induction of cell cycle arrest in rat RG2 cells assessed as accumulation at G0/G1 phase at 112.4 uM after 48 hrs by propidium iodide staining based flow cytometric analysis (reference value: 57.81 +/- 1.9%). Type of series: functional.
Series [12] has as its system DBTRG-05MG. Nature of the series: Induction of cell cycle arrest in human DBTRG-05MG cells assessed as CyclinB1 expression at 112.4 uM after 48 hrs by Western blot analysis (reference value: 1). Type of series: functional.
Series [13] deals with DBTRG-05MG. Nature of the series: Induction of cell cycle arrest in human DBTRG-05MG cells assessed as CyclinB1 expression at 112.4 uM after 48 hrs in presence of TMZ by Western blot analysis (reference value: 1). Type of series: functional.
Series [14] deals with RG2. Kind of series: Inhibition of JNK phosphorylation at Thr183/Tyr185 residues in rat RG2 cells at 112.4uM after 48 hrs in presence of TMZ by Western blot analysis (reference value: 1). Type of series: cell-based.
Series [15] in a line: Effect on p38 expression in rat RG2 cells at 112.4uM after 48 hrs in presence of TMZ by Western blot analysis (reference value: 1). Type of series: functional.
The subject of series [16] is RG2. Nature of the series: Induction of apoptosis in rat RG2 cells assessed as increase in DNA fragmentation at 112.4 uM after 48 hrs by TUNEL assay. It counts as functional, cell-based.
Series [17] concerns DBTRG-05MG. Nature of the series: Induction of apoptosis in human DBTRG-05MG cells assessed as increase in apoptotic body formation at 112.4 uM after 48 hrs in presence of TMZ by TUNEL assay. It counts as functional, cell-based.
In series [18] the test system is DBTRG-05MG. Nature of the series: Induction of apoptosis in human DBTRG-05MG cells assessed as Bcl2 expression at 112.4 uM after 48 hrs in presence of TMZ by Western blot analysis (reference value: 1). It counts as functional.
Series [19] deals with DBTRG-05MG. Kind of series: Induction of apoptosis in human DBTRG-05MG cells assessed as cleaved PARP expression at 112.4 uM after 48 hrs in presence of TMZ by Western blot analysis (reference value: 1). It counts as functional.
For series [20], the system named is RG2. Kind of series: Induction of apoptosis in rat RG2 cells assessed as phosphorylated PARP expression at 112.4 uM after 48 hrs by Western blot analysis (reference value: 1). It counts as functional.
Series [21] concerns RG2. Nature of the series: Induction of apoptosis in rat RG2 cells assessed as cleaved caspace-9 expression at 112.4 uM after 48 hrs in presence of TMZ by Western blot analysis (reference value: 1). It counts as functional.
Series [22] concerns RG2. Nature of the series: Induction of apoptosis in rat RG2 cells assessed as cleaved PARP expression at 112.4 uM after 48 hrs in presence of TMZ by Western blot analysis (reference value: 1). Type of series: functional.
The subject of series [23] is RG2. Nature of the series: Induction of DNA damage in rat RG2 cells at 112.4 uM after 48 hrs in presence of TMZ by p.H2A.X staining based fluorescent immunocytochemistry method. Type of series: functional, cell-based.
Series [24] relates to RG2. Nature of the series: Induction of DNA damage in rat RG2 cells assessed as ATR phosphorylation at ser428 residues at 112.4 uM after 48 hrs in presence of TMZ by Western blot analysis (reference value: 1). Type of series: functional.
A short description of series [25]: Inhibition of TMZ-induced drug resistance in rat RG2 cells assessed as CD133 expression at 112.4 uM after 48 hrs by Western blot analysis (reference value: 2.4). Type of series: functional.
The test system of series [26] is DBTRG-05MG. Nature of the series: Potentiation of TMZ-induced antitumor activity against human DBTRG-05MG cells xenografted in BALB/c nude mouse assessed as increase DNA damage at 75 mg/kg, sc co-treated with TMZ for 18 days by p.H2A.X staining based fluorescent immunocytochemistry method. Type of series: functional, organism-based. The note with it: time 18.0 day.

Series [27] deals with DBTRG-05MG. Kind of series: Induction of cell cycle arrest in human DBTRG-05MG cells assessed as accumulation at G2/M phase at 206 uM after 24 hrs by propidium iodide staining based flow cytometric analysis (reference value: 30.08 +/- 0.1%). It counts as functional.
Series [28] has as its system DBTRG-05MG. Kind of series: Induction of cell cycle arrest in human DBTRG-05MG cells assessed as accumulation at S phase at 206 uM after 48 hrs by propidium iodide staining based flow cytometric analysis (reference value: 22.76 +/- 1.56%). It counts as functional.
Series [29] relates to DBTRG-05MG. Kind of series: Induction of cell cycle arrest in human DBTRG-05MG cells assessed as CDK4 expression at 206 uM after 48 hrs by Western blot analysis (reference value: 1). Type of series: functional.
Series [30] has as its system RG2. Kind of series: Induction of cell cycle arrest in rat RG2 cells assessed as CDK2 expression at 206 uM after 48 hrs by Western blot analysis (reference value: 1). It counts as functional.
The test system of series [31] is DBTRG-05MG. Nature of the series: Inhibition of ERK phosphorylation at Tyr204 residues in human DBTRG-05MG cells at 206 uM after 48 hrs by Western blot analysis (reference value: 1). It counts as cell-based.
Series [32] relates to DBTRG-05MG. Nature of the series: Induction of apoptosis in human DBTRG-05MG cells assessed as increase in chromatin condensation at 206 uM after 48 hrs by TUNEL assay. Type of series: functional, cell-based.
Series [33] has as its system DBTRG-05MG. Nature of the series: Induction of apoptosis in human DBTRG-05MG cells assessed as cleaved caspace-9 expression at 206 uM after 48 hrs by Western blot analysis (reference value: 1). Type of series: functional.

Activity calls are given as the source filed them. The rule behind the calls is not given here.

Regarding `C[C@@H]1CC[C@H]2C(C)(C)[C@H]3C[C@@]12CC[C@@]3(C)O` [CEDROL], the Activity entry in series [1] is “Non-Toxic”; in series [6] it was 16.38%; in series [7], 53.13%; in series [8], 28.83%; in series [9], 21.29%; in series [10] it was 11.96%. In addition, the Activity in series [11] was 61.9%. Moreover, the Activity_index in [2] stood at 0.75; in series [3], 0.83; in [4], 0.89; in series [5] it was 0.4. Also, the “fold change (FC)” value is 0.5 in series [12]; 0.7 in series [13]; 0.6 in series [14]; 0.5 in series [15]; 0.9 in series [18]; 1.9 in [19]. In addition, the “fold change (FC)” value came to 0.6 in [20]; 1.8 in [21]; 1.6 in series [22]; 1.1 in series [24]; 1.3 in [25]. For the same compound, the outcome in series [16], in series [17], in [23] and in series [26] was Active.

In the case of `Cn1nnc2c(C(N)=O)ncn2c1=O` [TEMOZOLOMIDE], the Activity in series [27] was 43.53%; in [28], 23.42%. Also, the “fold change (FC)” value is 0.7 in series [29], 0.9 in series [30], 0.8 in series [31] and 1.8 in series [33]. The outcome in series [32] was Active.
